Measurements published in PubChem BioAssay AID1259407 (Chemical Carcinogenesis Research Information System (CCRIS), 2018).
Activity calls are given as the source filed them. How the calls were made is not given here.

Tested on: CCRIS mutagenicity, Ames/micronucleus/aberration tests
Test: CCRIS mutagenicity studies
Excerpt: The CCRIS database contains chemical records with carcinogenicity, mutagenicity, tumor promotion, and tumor inhibition test results. It was developed by the National Cancer Institute (NCI). Data are derived from studies cited in primary journals, current awareness tools, NCI reports, and other sources. Test results have been reviewed by experts in carcinogenesis and mutagenesis.
CCRIS provides historical information from the years 1985 - 2011. It is no longer updated.
This is an archive assay for CCRIS mutagenicity studies.

[1] = Test System: AMES SALMONELLA TYPHIMURIUM, Strain/Indicator: TA98, Metabolic Activation: NONE, Method: PREINCUBATION
[2] = Test System: AMES SALMONELLA TYPHIMURIUM, Strain/Indicator: TA98, Metabolic Activation: NONE, Method: STANDARD PLATE
[3] = Test System: AMES SALMONELLA TYPHIMURIUM, Strain/Indicator: TA100, Metabolic Activation: NONE, Method: PREINCUBATION
[4] = Test System: AMES SALMONELLA TYPHIMURIUM, Strain/Indicator: TA100, Metabolic Activation: NONE, Method: STANDARD PLATE
[5] = Test System: AMES SALMONELLA TYPHIMURIUM, Strain/Indicator: TA1535, Metabolic Activation: NONE, Method: STANDARD PLATE

Measured: mutagenic call

O=NN(CCCl)C(=O)NC1CCCCC1
inactive: Test System: AMES SALMONELLA TYPHIMURIUM, Strain/Indicator: TA97, Metabolic Activation: NONE, Method: STANDARD PLATE inactive; negative | Test System: AMES SALMONELLA TYPHIMURIUM, Strain/Indicator: TA97, Metabolic Activation: RAT, LIVER, S-9, PHENOBARBITAL AND ALPHA-NAPHTHOFLAVONE, Method: STANDARD PLATE inactive; negative | [1] inactive; negative | [2] inactive; negative | Test System: AMES SALMONELLA TYPHIMURIUM, Strain/Indicator: TA98, Metabolic Activation: RAT, LIVER, S-9, PHENOBARBITAL AND ALPHA-NAPHTHOFLAVONE, Method: STANDARD PLATE inactive; negative | Test System: AMES SALMONELLA TYPHIMURIUM, Strain/Indicator: TA98, Metabolic Activation: S-9, Method: PREINCUBATION inactive; negative
active: End Point: IN VITRO CHROMOSOMAL ABERRATIONS, Test System: HUMAN HCT116/3-6 CELLS, Metabolic Activation: NONE active; positive | End Point: IN VITRO CHROMOSOMAL ABERRATIONS, Test System: HUMAN HCT116 CELLS, Metabolic Activation: NONE active; positive | End Point: IN VITRO CHROMOSOMAL ABERRATIONS, Test System: HUMAN MT1 CELLS, Metabolic Activation: NONE active; positive | End Point: IN VITRO CHROMOSOMAL ABERRATIONS, Test System: HUMAN TK6 CELLS, Metabolic Activation: NONE active; positive | [3] active; positive | [4] active; positive | Test System: AMES SALMONELLA TYPHIMURIUM, Strain/Indicator: TA100, Metabolic Activation: RAT, LIVER, S-9, PHENOBARBITAL AND ALPHA-NAPHTHOFLAVONE, Method: STANDARD PLATE active; positive | Test System: AMES SALMONELLA TYPHIMURIUM, Strain/Indicator: TA100, Metabolic Activation: S-9, Method: PREINCUBATION active; positive | [5] active; positive | Test System: AMES SALMONELLA TYPHIMURIUM, Strain/Indicator: TA1535, Metabolic Activation: RAT, LIVER, S-9, PHENOBARBITAL AND ALPHA-NAPHTHOFLAVONE, Method: STANDARD PLATE active; positive | Test System: CHINESE HAMSTER V-79, Strain/Indicator: V-79/6-THIOGUANINE, Metabolic Activation: NONE, Method: STANDARD PLATE active; positive

Cc1cccc2cc3c(cc12)-c1cccc2cccc-3c12
active: Test System: AMES SALMONELLA TYPHIMURIUM, Strain/Indicator: TA100, Metabolic Activation: RAT, LIVER, S-9, AROCLOR 1254 active; positive

Cc1ccccc1N=Nc1ccc(N=Nc2c(O)ccc3ccccc23)c(C)c1
inactive: [2] inactive; negative | [4] inactive; negative
active: Test System: AMES SALMONELLA TYPHIMURIUM, Strain/Indicator: TA98, Metabolic Activation: HAMSTER, LIVER, S-9, Method: PREINCUBATION (PRIVAL METHOD) active; positive

O.O.O.O.O.O.O=[N+]([O-])O.O=[N+]([O-])O.[Zn]
inactive: [1] inactive; negative | Test System: AMES SALMONELLA TYPHIMURIUM, Strain/Indicator: TA98, Metabolic Activation: RAT LIVER S-9, PHENOBARBITAL AND BETA-NAPHTHOFLAVONE, Method: PREINCUBATION inactive; negative | [3] inactive; negative | Test System: AMES SALMONELLA TYPHIMURIUM, Strain/Indicator: TA100, Metabolic Activation: RAT LIVER S-9, PHENOBARBITAL AND BETA-NAPHTHOFLAVONE, Method: PREINCUBATION inactive; negative | Test System: AMES SALMONELLA TYPHIMURIUM, Strain/Indicator: TA1535, Metabolic Activation: NONE, Method: PREINCUBATION inactive; negative | Test System: AMES SALMONELLA TYPHIMURIUM, Strain/Indicator: TA1535, Metabolic Activation: RAT LIVER S-9, PHENOBARBITAL AND BETA-NAPHTHOFLAVONE, Method: PREINCUBATION inactive; negative | Test System: AMES SALMONELLA TYPHIMURIUM, Strain/Indicator: TA1537, Metabolic Activation: NONE, Method: PREINCUBATION inactive; negative | Test System: AMES SALMONELLA TYPHIMURIUM, Strain/Indicator: TA1537, Metabolic Activation: RAT LIVER S-9, PHENOBARBITAL AND BETA-NAPHTHOFLAVONE, Method: PREINCUBATION inactive; negative | Test System: AMES SALMONELLA TYPHIMURIUM, Strain/Indicator: TA1538, Metabolic Activation: NONE, Method: PREINCUBATION inactive; negative | Test System: AMES SALMONELLA TYPHIMURIUM, Strain/Indicator: TA1538, Metabolic Activation: RAT LIVER S-9, PHENOBARBITAL AND BETA-NAPHTHOFLAVONE, Method: PREINCUBATION inactive; negative | Test System: E.COLI, Strain/Indicator: WP2UVRA, Metabolic Activation: NONE, Method: PREINCUBATION inactive; negative | Test System: E.COLI, Strain/Indicator: WP2UVRA, Metabolic Activation: RAT LIVER S-9, PHENOBARBITAL AND BETA-NAPHTHOFLAVONE, Method: PREINCUBATION inactive; negative

CC(O)CN(N=O)C(N)=O (stereo not given)
active: Test System: E. COLI B, Strain/Indicator: H/R30R, Metabolic Activation: NONE active; positive | Test System: E. COLI B, Strain/Indicator: HS30R, Metabolic Activation: NONE active; positive

CC(C)CC(=O)OCc1cocc2c(C=O)ccc1-2
active: [2] active; positive | Test System: AMES SALMONELLA TYPHIMURIUM, Strain/Indicator: TA98, Metabolic Activation: RAT, LIVER, S-9, AROCLOR 1254, Method: STANDARD PLATE active; positive | [4] active; positive | Test System: AMES SALMONELLA TYPHIMURIUM, Strain/Indicator: TA100, Metabolic Activation: RAT, LIVER, S-9, AROCLOR 1254, Method: STANDARD PLATE active; positive
inactive: [5] inactive; negative | Test System: AMES SALMONELLA TYPHIMURIUM, Strain/Indicator: TA1535, Metabolic Activation: RAT, LIVER, S-9, AROCLOR 1254, Method: STANDARD PLATE inactive; negative | Test System: AMES SALMONELLA TYPHIMURIUM, Strain/Indicator: TA1537, Metabolic Activation: NONE, Method: STANDARD PLATE inactive; negative | Test System: AMES SALMONELLA TYPHIMURIUM, Strain/Indicator: TA1537, Metabolic Activation: RAT, LIVER, S-9, AROCLOR 1254, Method: STANDARD PLATE inactive; negative

CC1(C)CCCC(C)(C)N1[O]
inactive: [2] inactive; negative | [4] inactive; negative | Test System: AMES SALMONELLA TYPHIMURIUM, Strain/Indicator: TA102, Metabolic Activation: NONE, Method: STANDARD PLATE inactive; negative

c1cnc2c(c1)[C@@H]1O[C@@H]1C1OC21 (stereo not given in full)
inactive: [4] inactive; negative | Test System: AMES SALMONELLA TYPHIMURIUM, Strain/Indicator: TA100, Metabolic Activation: RAT, LIVER, S-9, AROCLOR 1254 (10% OR 20%), Method: STANDARD PLATE inactive; negative

CCCc1cc(=O)oc2c3c(c4c(c12)OC(C)(C)C=C4)O[C@H](C)[C@@H](C)[C@H]3O
inactive: Test System: Mouse lymphoma, Strain/Indicator: L5178Y (tk+/tk-), Metabolic Activation: None, Method: Suspension/plate inactive; negative | Test System: Mouse lymphoma, Strain/Indicator: L5178Y (tk+/tk-), Metabolic Activation: Rat, Liver, S-9, Aroclor 1254, Method: Suspension/plate inactive; negative
